Columns and labels:
Format in all cases: functional
MDA-MB-468 = experiment: Cytotoxicity against human MDA-MB-468 cells assessed as cell growth at 10 uM after 24 hrs by SRB assay; conditions: MDA-MB-468, 24 h, read-out: Activity
[1] = Cytotoxicity against human UACC62 cells assessed as cell growth at 10 uM after 24 hrs by SRB assay; conditions: UACC-62, 24 h, read-out: Activity
[2] = Cytotoxicity against human SW620 cells assessed as cell growth at 10 uM after 24 hrs by SRB assay; conditions: SW-620, 24 h, read-out: Activity
HT-29 = experiment: Cytotoxicity against human HT-29 cells assessed as cell growth at 10 uM after 24 hrs by SRB assay; conditions: HT-29, 24 h, read-out: Activity
[3] = Cytotoxicity against human COLO205 cells assessed as cell growth at 10 uM after 24 hrs by SRB assay; conditions: COLO 205, 24 h, read-out: Activity
[4] = Cytotoxicity against human SF539 cells assessed as cell growth at 10 uM after 24 hrs by SRB assay; conditions: SF-539, 24 h, read-out: Activity
[5] = Cytotoxicity against human IGROV1 cells assessed as cell growth at 10 uM after 24 hrs by SRB assay; conditions: IGROV-1, 24 h, read-out: Activity
786-0 = experiment: Cytotoxicity against human 786-0 cells assessed as cell growth at 10 uM after 24 hrs by SRB assay; conditions: 786-0, 24 h, read-out: Activity
K562 = experiment: Cytotoxicity against human K562 cells assessed as cell growth at 10 uM after 24 hrs by SRB assay; conditions: K562, 24 h, read-out: Activity
MDA-MB-435 = experiment: Cytotoxicity against human MDA-MB-435 cells assessed as cell growth at 10 uM after 24 hrs by SRB assay; conditions: MDA-MB-435, 24 h, read-out: Activity
NCI-H460 = experiment: Cytotoxicity against human NCI-H460 cells assessed as cell growth at 10 uM after 24 hrs by SRB assay; conditions: NCI-H460, 24 h, read-out: Activity
A549 = experiment: Cytotoxicity against human A549 cells assessed as cell growth at 10 uM after 24 hrs by SRB assay; conditions: A549, 24 h, read-out: Activity
NCI-H226 = experiment: Cytotoxicity against human NCI-H226 cells assessed as cell growth at 10 uM after 24 hrs by SRB assay; conditions: NCI-H226, 24 h, read-out: Activity
KM12 = experiment: Cytotoxicity against human KM12 cells assessed as cell growth at 10 uM after 24 hrs by SRB assay; conditions: KM12, 24 h, read-out: Activity
M14 = experiment: Cytotoxicity against human M14 cells assessed as cell growth at 10 uM after 24 hrs by SRB assay; conditions: M14, 24 h, read-out: Activity
[6] = Cytotoxicity against human OVCAR3 cells assessed as cell growth at 10 uM after 24 hrs by SRB assay; conditions: OVCAR-3, 24 h, read-out: Activity
MCF7 = experiment: Cytotoxicity against human MCF7 cells assessed as cell growth at 10 uM after 24 hrs by SRB assay; conditions: MCF7, 24 h, read-out: Activity
[7] = Cytotoxicity against human TK10 cells assessed as cell growth at 10 uM after 24 hrs by SRB assay; conditions: TK-10, 24 h, read-out: Activity
[8] = Cytotoxicity against human UACC257 cells assessed as cell growth at 10 uM after 24 hrs by SRB assay; conditions: UACC-257, 24 h, read-out: Activity
SK-MEL-28 = experiment: Cytotoxicity against human SK-MEL-28 cells assessed as cell growth at 10 uM after 24 hrs by SRB assay; conditions: SK-MEL-28, 24 h, read-out: Activity
[9] = Cytotoxicity against human HOP62 cells assessed as cell growth at 10 uM after 24 hrs by SRB assay; conditions: HOP-62, 24 h, read-out: Activity
[10] = Cytotoxicity against human LOXIMVI cells assessed as cell growth at 10 uM after 24 hrs by SRB assay; conditions: LOX IMVI, read-out: Activity
U-251 = experiment: Cytotoxicity against human U251 cells assessed as cell growth at 10 uM after 24 hrs by SRB assay; conditions: U-251, 24 h, read-out: Activity
[11] = Cytotoxicity against human HCT116 cells assessed as cell growth at 10 uM after 24 hrs by SRB assay; conditions: HCT-116, 24 h, read-out: Activity
[12] = Cytotoxicity against human SNB19 cells assessed as cell growth at 10 uM after 24 hrs by SRB assay; conditions: SNB-19, 24 h, read-out: Activity
NCI-H522 = experiment: Cytotoxicity against human NCI-H522 cells assessed as cell growth at 10 uM after 24 hrs by SRB assay; conditions: NCI-H522, 24 h, read-out: Activity
[13] = Cytotoxicity against human HCT15 cells assessed as cell growth at 10 uM after 24 hrs by SRB assay; conditions: HCT-15, 24 h, read-out: Activity
[14] = Cytotoxicity against human NCI-ADR-RES cells assessed as cell growth at 10 uM after 24 hrs by SRB assay; conditions: read-out: Activity
[15] = Cytotoxicity against human OVCAR4 cells assessed as cell growth at 10 uM after 24 hrs by SRB assay; conditions: OVCAR-4, 24 h, read-out: Activity
[16] = Cytotoxicity against human MOLT4 cells assessed as cell growth at 10 uM after 24 hrs by SRB assay; conditions: MOLT-4, 24 h, read-out: Activity
NCI-H23 = experiment: Cytotoxicity against human NCI-H23 cells assessed as cell growth at 10 uM after 24 hrs by SRB assay; conditions: NCI-H23, 24 h, read-out: Activity
[17] = Cytotoxicity against human PC3 cells assessed as cell growth at 10 uM after 24 hrs by SRB assay; conditions: PC-3, 24 h, read-out: Activity
[18] = Cytotoxicity against human HCC2998 cells assessed as cell growth at 10 uM after 24 hrs by SRB assay; conditions: HCC 2998, 24 h, read-out: Activity
SK-MEL-2 = experiment: Cytotoxicity against human SK-MEL-2 cells assessed as cell growth at 10 uM after 24 hrs by SRB assay; conditions: SK-MEL-2, 24 h, read-out: Activity
[19] = Cytotoxicity against human Caki1 cells assessed as cell growth at 10 uM after 24 hrs by SRB assay; conditions: CAKI-1, 24 h, read-out: Activity
[20] = Cytotoxicity against human OVCAR8 cells assessed as cell growth at 10 uM after 24 hrs by SRB assay; conditions: OVCAR-8, 24 h, read-out: Activity
A498 = experiment: Cytotoxicity against human A498 cells assessed as cell growth at 10 uM after 24 hrs by SRB assay; conditions: A498, 24 h, read-out: Activity
MDA-MB-231 = experiment: Cytotoxicity against human MDA-MB-231 cells assessed as cell growth at 10 uM after 24 hrs by SRB assay; conditions: MDA-MB-231, 24 h, read-out: Activity

In the case of `O=C(Nc1cc(-c2cccnc2)nc(NCCCN2CCOCC2)n1)c1cc(Br)cc(C(F)(F)F)c1`, the growth at 10 µM (MDA-MB-468) is reported as 52.8%, the growth at 10 µM [1] is reported as -6.13% and the growth at 10 µM [2] is reported as 75.4%. It also gave a growth at 10 µM (HT-29) of 8.99%, a growth at 10 µM [3] of 1.11% and a growth at 10 µM [4] of 66.5%. The growth at 10 µM [5] was 63.1%, the growth at 10 µM (786-0) was 51.8% and the growth at 10 µM (K562) was 8.84%. It also gave a growth at 10 µM (MDA-MB-435) of 9.55%, a growth at 10 µM (NCI-H460) of 56% and a growth at 10 µM (A549) of 67.9%. For the same compound, the growth at 10 µM (NCI-H226) was 73.8%, the growth at 10 µM (KM12) was 80% and the growth at 10 µM (M14) was -72.1%. It also gave a growth at 10 µM [6] of 80%, a growth at 10 µM (MCF7) of 38.6% and a growth at 10 µM [7] of 65.4%. For the same compound, the growth at 10 µM [8] was -27.1%, the growth at 10 µM (SK-MEL-28) was -49.8% and the growth at 10 µM [9] was 69.4%. It also gave a growth at 10 µM [10] of -16.8%, a growth at 10 µM (U-251) of 33.1% and a growth at 10 µM [11] of 35.7%. The growth at 10 µM [12] was 69.6%, the growth at 10 µM (NCI-H522) was 60.2% and the growth at 10 µM [13] was 6.87%. The growth at 10 µM [14] was 56.6%, the growth at 10 µM [15] was 62.2% and the growth at 10 µM [16] was 45.1%. For the same compound, the growth at 10 µM (NCI-H23) was 80.9%, the growth at 10 µM [17] was 57.7% and the growth at 10 µM [18] was 37.8%. The growth at 10 µM (SK-MEL-2) was 81.3%, the growth at 10 µM [19] was 61.8% and the growth at 10 µM [20] was 58.5%. It also gave a growth at 10 µM (A498) of 53.7% and a growth at 10 µM (MDA-MB-231) of 32.7%.
`COCCCNc1nc(NC(=O)c2cc(OC)cc(OC)c2)cc(-c2cccnc2)n1` showed a growth at 10 µM (MDA-MB-468) of 94.8%, a growth at 10 µM [1] of 111% and a growth at 10 µM [2] of 101%. The growth at 10 µM (HT-29) was 95.5%, the growth at 10 µM [3] was 109% and the growth at 10 µM [4] was 88.9%. It also gave a growth at 10 µM [5] of 102%, a growth at 10 µM (786-0) of 83.3% and a growth at 10 µM (K562) of 86.1%. The growth at 10 µM (MDA-MB-435) was 100%, the growth at 10 µM (NCI-H460) was 95.2% and the growth at 10 µM (A549) was 91.2%. It also gave a growth at 10 µM (NCI-H226) of 96.5%, a growth at 10 µM (KM12) of 103% and a growth at 10 µM (M14) of 107%. For the same compound, the growth at 10 µM [6] was 113%, the growth at 10 µM (MCF7) was 97.8% and the growth at 10 µM [7] was 86.7%. It also gave a growth at 10 µM [8] of 106%, a growth at 10 µM (SK-MEL-28) of 105% and a growth at 10 µM [9] of 91.3%. For the same compound, the growth at 10 µM [10] was 94.5%, the growth at 10 µM (U-251) was 96.8% and the growth at 10 µM [11] was 90.3%. It also gave a growth at 10 µM [12] of 98.3%, a growth at 10 µM (NCI-H522) of 76.5% and a growth at 10 µM [13] of 90.3%. For the same compound, the growth at 10 µM [14] was 83.5%, the growth at 10 µM [15] was 108% and the growth at 10 µM [16] was 83.5%. The growth at 10 µM (NCI-H23) was 98.6%, the growth at 10 µM [17] was 87.3% and the growth at 10 µM [18] was 110%. For the same compound, the growth at 10 µM (SK-MEL-2) was 78.8%, the growth at 10 µM [19] was 99.4% and the growth at 10 µM [20] was 79.3%. For the same compound, the growth at 10 µM (A498) was 67.7% and the growth at 10 µM (MDA-MB-231) was 69.1%.
Compound `COCCCNc1nc(NC(=O)c2ccc(Cl)cc2C)cc(-c2cccnc2)n1` has a growth at 10 µM (MDA-MB-468) of 111%, a growth at 10 µM [1] of 109% and a growth at 10 µM [2] of 109%. It also gave a growth at 10 µM (HT-29) of 105%, a growth at 10 µM [3] of 111% and a growth at 10 µM [4] of 89.9%. For the same compound, the growth at 10 µM [5] was 106%, the growth at 10 µM (786-0) was 85.4% and the growth at 10 µM (K562) was 104%. It also gave a growth at 10 µM (MDA-MB-435) of 95.6%, a growth at 10 µM (NCI-H460) of 102% and a growth at 10 µM (A549) of 79.8%. It also gave a growth at 10 µM (NCI-H226) of 89.1%, a growth at 10 µM (KM12) of 104% and a growth at 10 µM (M14) of 103%. For the same compound, the growth at 10 µM [6] was 117%, the growth at 10 µM (MCF7) was 81.1% and the growth at 10 µM [7] was 88.5%. For the same compound, the growth at 10 µM [8] was 85.7%, the growth at 10 µM (SK-MEL-28) was 104% and the growth at 10 µM [9] was 99.3%. For the same compound, the growth at 10 µM [10] was 107%, the growth at 10 µM (U-251) was 112% and the growth at 10 µM [11] was 101%. It also gave a growth at 10 µM [12] of 91.7%, a growth at 10 µM (NCI-H522) of 78.6% and a growth at 10 µM [13] of 109%. The growth at 10 µM [14] was 108%, the growth at 10 µM [15] was 106% and the growth at 10 µM [16] was 93.9%. For the same compound, the growth at 10 µM (NCI-H23) was 107%, the growth at 10 µM [17] was 110% and the growth at 10 µM [18] was 103%. The growth at 10 µM (SK-MEL-2) was 107%, the growth at 10 µM [19] was 99.5% and the growth at 10 µM [20] was 94.2%. For the same compound, the growth at 10 µM (A498) was 109% and the growth at 10 µM (MDA-MB-231) was 94%.

Reference: ChEMBL document CHEMBL3774345, “Synthesis of new diarylamides with pyrimidinyl pyridine scaffold and evaluation of their anti-proliferative effect on cancer cell lines” (Bioorg Med Chem Lett, 2016)
